Experimental data from PMC11012124, “Synthesis of Novel Triazine-Based Chalcones and 8,9-dihydro-7H-pyrimido[4,5-b][1,4]diazepines as Potential Leads in the Search of Anticancer, Antibacterial and Antifungal Agents” (International Journal of Molecular Sciences, 2024).
In brackets after ≈: the same amount, converted by molar mass.

Experiments:
[1] = tested on: M. tuberculosis ATCC 27294; assay: Antitubercular broth microdilution MIC; format: cell-based; details: Mycobacterium tuberculosis; M. tuberculosis ATCC 27294 (H37Rv); read-out: Minimum inhibitory concentration (MIC)
A. niger (ATCC 9029) = assay: Antifungal broth microdilution (CLSI); format: cell-based; details: ATCC9029; Ani: Aspergillus niger
Summary of the method: (§1)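 Broth microdilution followed CLSI M27-A3 for yeasts and the filamentous-fungi reference method, in 200 μL final volume with DMSO-matched growth controls. Plates were incubated in the dark and humid at 30 °C for a time suited to each fungus; testing was done in triplicate.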

[2] = tested on: Microsporum gypseum (CCC 115); assay: Antifungal broth microdilution (CLSI); format: cell-based; details: Nannizzia gypsea; Mg: Microsporum gypseum
Summary of the method: as §1

[3] = Hemolytic activity, spectrophotometric; format: cell-based, human; details: human, human red blood cells (huRBC), 5% hematocrit, 200 μg/mL, 37 °C
CCRF-CEM = assay: cells; details: Homo sapiens, 48 h
K-562 = assay: cells; details: Homo sapiens, K562, 48 h
EKVX = assay: cells; details: Homo sapiens, 48 h
HOP-62 = assay: cells; details: Homo sapiens, HOP-62, 48 h
NCI-H322M = assay: cells; details: Homo sapiens, 48 h
HCC-2998 = assay: cells; details: Homo sapiens, HCC 2998, 48 h
SW-620 = assay: cells; details: Homo sapiens, SW-620, 48 h
SF-268 = assay: cells; details: Homo sapiens, SF-268, 48 h
MALME-3M = assay: cells; details: Homo sapiens, 48 h
MDA-MB-435 = assay: cells; details: Homo sapiens, MDA-MB-435, 48 h
SK-MEL-28 = assay: cells; details: Homo sapiens, SK-MEL-28, 48 h
IGROV1 = assay: cells; details: Homo sapiens, IGROV-1, 48 h
OVCAR-3 = assay: cells; details: Homo sapiens, OVCAR-3, 48 h
OVCAR-8 = assay: cells; details: Homo sapiens, OVCAR-8, 48 h
NCI/ADR-RES = assay: cells; details: Homo sapiens, 48 h
ACHN = assay: cells; details: Homo sapiens, 48 h
CAKI-1 = assay: cells; details: Homo sapiens, CAKI-1, 48 h
RXF 393 = assay: cells; details: Homo sapiens, RXF 393, 48 h
PC-3 = assay: cells; details: Homo sapiens, PC-3, 48 h
HS 578T = assay: cells; details: Homo sapiens, 48 h
BT-549 = assay: cells; details: Homo sapiens, BT-549, 48 h

Compound `CN(C)c1nc(NCCNS(=O)(=O)c2ccc(C3=Nc4c(N)nc(N)nc4NC(c4ccc(C(F)(F)F)cc4)C3)cc2)nc(Nc2ccc(F)cc2)n1` (stereo not shown) [31g] has an MIC [1] of 5 µg/mL (≈ 6.65 µM), an MIC (A. niger (ATCC 9029)) greater than 250 µg/mL and an MIC [2] greater than 250 µg/mL. The hemolysis at 24 h, 200 µg/mL [3] was 3%, the GI50 (CCRF-CEM) was 3.24 µM and the CC50 (CCRF-CEM; read-out: LC50) was 86 µM. The GI50 (K-562; K-562, 48 h) was 3.51 µM, the CC50 (K-562; read-out: LC50) was 86 µM and the GI50 (EKVX) was 5.52 µM. The CC50 (EKVX; read-out: LC50) was 86 µM, the GI50 (HOP-62) was 31.4 µM and the CC50 (HOP-62; read-out: LC50) was 86 µM. The GI50 (NCI-H322M) was 42.5 µM, the CC50 (NCI-H322M; read-out: LC50) was 86 µM and the GI50 (HCC-2998) was 4.73 µM. For the same compound, the CC50 (HCC-2998; read-out: LC50) was 25.9 µM, the GI50 (SW-620) was 14.3 µM and the CC50 (SW-620; read-out: LC50) was 86 µM. The GI50 (SF-268) was 11.2 µM, the CC50 (SF-268; read-out: LC50) was 86 µM and the GI50 (MALME-3M) was 11.3 µM. For the same compound, the CC50 (MALME-3M; read-out: LC50) was 24.2 µM, the GI50 (MDA-MB-435) was 9.13 µM and the CC50 (MDA-MB-435; read-out: LC50) was 86 µM. It also gave a GI50 (SK-MEL-28) of 15 µM, a CC50 (SK-MEL-28; read-out: LC50) of 86 µM and a GI50 (IGROV1) of 11.2 µM. For the same compound, the CC50 (IGROV1; read-out: LC50) was 86 µM, the GI50 (OVCAR-3) was 11.9 µM and the CC50 (OVCAR-3; read-out: LC50) was 86 µM. For the same compound, the GI50 (OVCAR-8) was 26.1 µM, the CC50 (OVCAR-8; read-out: LC50) was 86 µM and the GI50 (NCI/ADR-RES) was greater than 86 µM. It also gave a CC50 (NCI/ADR-RES; read-out: LC50) greater than 86 µM, a GI50 (ACHN) greater than 86 µM and a CC50 (ACHN; read-out: LC50) greater than 86 µM. For the same compound, the GI50 (CAKI-1) was 36.8 µM, the CC50 (CAKI-1; read-out: LC50) was 86 µM and the GI50 (RXF 393) was 2.57 µM. It also gave a CC50 (RXF 393; read-out: LC50) of 18.8 µM, a GI50 (PC-3) of 4.37 µM and a CC50 (PC-3; read-out: LC50) of 86 µM. It also gave a GI50 (HS 578T) of 9.03 µM, a CC50 (HS 578T; read-out: LC50) of 86 µM and a GI50 (BT-549) of 11.8 µM. For the same compound, the CC50 (BT-549; read-out: LC50) was 32.6 µM.
